Results reported in ChEMBL document CHEMBL1201862, “PubChem BioAssay data set” (2004).
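Assay format: 96-well plates, 48-hour exposure. GI50 marks 50% less growth.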 Calls of active or inactive are those of the source. Cut-off read from the data, not from the text of the source: active = GI50 up to about 1.1 µM and inactive = higher.

How the values were obtained:
Assay in all cases: NCI tumour cell line growth inhibition, 48 h
A549 = system: A549
COLO 205 = system: COLO 205
EKVX = system: EKVX
HCC 2998 = system: HCC 2998
HCT-15 = system: HCT-15
HL-60 = system: HL-60
IGROV-1 = system: IGROV-1
KM-20L2 = system: KM-20L2
OVCAR-5 = system: OVCAR-5
RXF 393 = system: RXF 393
SF-539 = system: SF-539
SK-MEL-5 = system: SK-MEL-5
SN12C = system: SN12C
SNB-19 = system: SNB-19
SNB-75 = system: SNB-75
A498 = system: A498
Hs-578T = system: Hs-578T
MDA-N = system: MDA-N
NCI/ADR-RES = system: NCI/ADR-RES
PC-3 = system: PC-3

For NC1=NS(=O)(=O)Nc2nc(-c3ccccc3)c(-c3ccccc3)nc21, the GI50 (A549) was > 100 µM (inactive), the GI50 (COLO 205) was > 100 µM (inactive) and the GI50 (EKVX) was > 100 µM (inactive). The GI50 (HCC 2998) was > 100 µM (inactive), the GI50 (HCT-15) was over 100 µM and the GI50 (HL-60) was > 100 µM (inactive). For the same compound, the GI50 (IGROV-1) was > 100 µM (inactive), the GI50 (KM-20L2) was > 100 µM (inactive) and the GI50 (OVCAR-5) was > 100 µM (inactive). The GI50 (RXF 393) was > 100 µM (inactive), the GI50 (SF-539) was > 100 µM (inactive) and the GI50 (SK-MEL-5) was > 100 µM (inactive). The GI50 (SN12C) was > 100 µM (inactive), the GI50 (SNB-19) was > 100 µM (inactive) and the GI50 (SNB-75) was > 100 µM (inactive).

For COC(=O)C(=C\Sc1ccccc1)/C=C/C(=O)OC(C)(C)C, the GI50 (A549) was 18.3 µM (inactive), the GI50 (COLO 205) was 5.3 µM (inactive) and the GI50 (EKVX) was 10.6 µM (inactive). The GI50 (HCC 2998) was 10.1 µM (inactive), the GI50 (HCT-15) was 6.67 µM and the GI50 (HL-60) was 1.48 µM (inactive). For the same compound, the GI50 (IGROV-1) was 13.1 µM (inactive), the GI50 (KM-20L2) was 17.1 µM (inactive) and the GI50 (OVCAR-5) was 15.4 µM (inactive). For the same compound, the GI50 (RXF 393) was 2.69 µM (inactive), the GI50 (SF-539) was 13.6 µM (inactive) and the GI50 (SK-MEL-5) was 15 µM (inactive). The GI50 (SNB-19) was 4.08 µM (inactive) and the GI50 (SNB-75) was 14 µM (inactive).

For COc1cc(CNc2cnc3cc(N)ccc3n2)cc(OC)c1OC, the GI50 (A498) was 26.5 µM (inactive), the GI50 (A549) was 44.6 µM (inactive) and the GI50 (COLO 205) was 22.4 µM (inactive). The GI50 (EKVX) was 76.7 µM (inactive), the GI50 (HCC 2998) was 35.1 µM (inactive) and the GI50 (HCT-15) was 23 µM. The GI50 (HL-60) was 7.21 µM (inactive), the GI50 (IGROV-1) was 39.3 µM (inactive) and the GI50 (KM-20L2) was 14 µM (inactive). For the same compound, the GI50 (OVCAR-5) was 68.2 µM (inactive), the GI50 (SF-539) was 19.4 µM (inactive) and the GI50 (SK-MEL-5) was 14.9 µM (inactive). For the same compound, the GI50 (SN12C) was 54.5 µM (inactive), the GI50 (SNB-19) was 34.8 µM (inactive) and the GI50 (SNB-75) was 31.6 µM (inactive).

For N/N=c1\[nH]c2ccccc2o1, the GI50 (A498) was > 100 µM (inactive), the GI50 (A549) was > 100 µM (inactive) and the GI50 (COLO 205) was > 100 µM (inactive). The GI50 (EKVX) was > 100 µM (inactive), the GI50 (HCC 2998) was > 100 µM (inactive) and the GI50 (HCT-15) was 77.3 µM. For the same compound, the GI50 (HL-60) was 53.6 µM (inactive), the GI50 (Hs-578T) was > 100 µM (inactive) and the GI50 (IGROV-1) was > 100 µM (inactive). The GI50 (MDA-N) was > 100 µM (inactive), the GI50 (NCI/ADR-RES) was 52.7 µM (inactive) and the GI50 (OVCAR-5) was > 100 µM (inactive). For the same compound, the GI50 (PC-3) was > 100 µM (inactive), the GI50 (RXF 393) was > 100 µM (inactive) and the GI50 (SF-539) was > 100 µM (inactive). For the same compound, the GI50 (SK-MEL-5) was > 100 µM (inactive), the GI50 (SN12C) was > 100 µM (inactive) and the GI50 (SNB-19) was > 100 µM (inactive). For the same compound, the GI50 (SNB-75) was > 100 µM (inactive).

N#Cc1c2nc3ccccc3nc2n2ccccc12 was tested, and the GI50 (A498) was 76 µM (inactive), the GI50 (A549) was > 100 µM (inactive) and the GI50 (COLO 205) was > 100 µM (inactive). The GI50 (EKVX) was > 100 µM (inactive), the GI50 (HCC 2998) was > 100 µM (inactive) and the GI50 (HCT-15) was over 100 µM. For the same compound, the GI50 (HL-60) was > 100 µM (inactive), the GI50 (IGROV-1) was > 100 µM (inactive) and the GI50 (KM-20L2) was > 100 µM (inactive). The GI50 (OVCAR-5) was > 100 µM (inactive), the GI50 (SF-539) was > 100 µM (inactive) and the GI50 (SK-MEL-5) was > 100 µM (inactive). For the same compound, the GI50 (SN12C) was > 100 µM (inactive), the GI50 (SNB-19) was > 100 µM (inactive) and the GI50 (SNB-75) was > 100 µM (inactive).

O=c1c2cccnc2ncn1CCN1CCCCC1 was tested, and the GI50 (A549) was > 100 µM (inactive), the GI50 (COLO 205) was > 100 µM (inactive) and the GI50 (EKVX) was > 100 µM (inactive). For the same compound, the GI50 (HCC 2998) was > 100 µM (inactive), the GI50 (IGROV-1) was > 100 µM (inactive) and the GI50 (KM-20L2) was > 100 µM (inactive). For the same compound, the GI50 (OVCAR-5) was > 100 µM (inactive), the GI50 (RXF 393) was > 100 µM (inactive) and the GI50 (SF-539) was > 100 µM (inactive). The GI50 (SK-MEL-5) was > 100 µM (inactive), the GI50 (SN12C) was > 100 µM (inactive) and the GI50 (SNB-19) was > 100 µM (inactive). For the same compound, the GI50 (SNB-75) was > 100 µM (inactive).

Nc1nc(O)c2c(ncn2CCO)n1 was tested, and the GI50 (A549) was > 100 µM (inactive), the GI50 (COLO 205) was > 100 µM (inactive) and the GI50 (EKVX) was > 100 µM (inactive). The GI50 (HCC 2998) was > 100 µM (inactive), the GI50 (HCT-15) was over 100 µM and the GI50 (HL-60) was > 100 µM (inactive). The GI50 (KM-20L2) was > 100 µM (inactive), the GI50 (OVCAR-5) was > 100 µM (inactive) and the GI50 (RXF 393) was > 100 µM (inactive). The GI50 (SF-539) was > 100 µM (inactive), the GI50 (SN12C) was > 100 µM (inactive) and the GI50 (SNB-19) was > 100 µM (inactive). The GI50 (SNB-75) was > 100 µM (inactive).
